Laboratory results published in US20260042764A1, “COMPOSITIONS AND METHODS FOR INHIBITION OF KRAS” (TheRas, Inc., priority 2022, published 2026).
pIC50: −log10 of the molar value.

How the values were obtained:
H1573 cells (KRAS G12A) = test: 3D Cell viability assay in H1573 cells (Biological Example 6); format: cell-based; conditions: H1573 (KRAS G12A) spheroids, 72 hours
Description: (§1) Biological Example 6: 3D Cell viability assay in AsPC-1, SW1900, HPAC, Capan-2, RKN, H358, HCT116, KP-2, H1573, A549, MKN1, and HT1080 cells
(§2) The inhibition of cellular viability as a result of test compound treatment in a spheroid assay was measured using the CellTiter-Glow 3D Cell Viability Assay (Promega).
(§3) On Day 1, 1000 cells per well were seeded in 150 μL of complete growth media supplemented with 10% fetal bovine serum (FBS) and incubated at 37° C., in the presence of 5% CO2 in 96-well ultra-low attachment microplates (Corning) for 48 hours undisturbed to allow spheroids to form.
(§4) Following spheroid formation, cells were treated with compounds diluted in DMSO at 0.25% final DMSO concentration. Compounds were dosed in a 9-point concentration curve with three-fold dilution between concentrations. Cells were incubated in the presence of compound for 72 hours at 37° C., in the presence of 5% CO2.
(§5) Following this incubation period, the kit-provided CTG reagent was allowed to equilibrate for 30 minutes at room temperature, 150 μL of equilibrated CTG reagent was added to each well, and the plate was sealed before shaking at 250 rpm for 10 minutes at room temperature to lyse the cells, 150 μL of lysate per well was transferred to a 96-well plate and luminescence was read on a CLARIOstar plate reader.
(§6) Data was imported into the Prism software package (Graphpad) and EC50 values were calculated using the log (inhibitor) vs, response—variable slope (Four parameters) model.

HT1080 cells (NRAS) = test: 3D Cell viability assay in HT1080 cells (Biological Example 6); format: cell-based; conditions: HT1080 (NRAS) spheroids, 72 hours
Description: as §1, §2, §3, §4, §5, §6

KP-2 cells (KRAS G12R) [1] = test: Cell-based pERK HTRF assay in KP-2 cells (Biological Example 5); conditions: KP-2 (KRAS G12R) cells
Description: Biological Example 5: Cell-based PERK HTRF assay in AsPC-1, SW1900, HPAC, Capan-2, RKN, H358, HCT116, KP-2, H1573, A549, MKN1, and HT1080 cells
The inhibition of ERK phosphorylation, as measured using the HTRF Advanced Phospho-ERK 1/2 (Thr202/Tyr204) Detection Assay kit (Perkin Elmer), was used to determine the effectiveness of test compounds in disrupting KRAS-driven protein/effector signaling in cells.
On day 1, cells were seeded into 96-well plates at 2.5×10^4 cells/well in 100 μL of complete growth media supplemented with 10% fetal bovine serum (FBS) and incubated at 37° C., in the presence of 5% CO2.
On day 2, cells were treated with compounds diluted in DMSO at 0.25% final DMSO concentration. Compounds were dosed in a 9-point concentration curve with three-fold dilution between concentrations. Cells were incubated in the presence of compound for two hours at 37° C. Following this treatment period, cells were harvested by aspirating the media, adding 40 μL of kit-supplied 1x lysis buffer per well, and shaking for 30 minutes at 250 rpm at room temperature.
Following cell lysis, samples were homogenized by pipetting up and down twenty times and 16 μL of cell lysate per well was transferred from the 96-well cell culture plate to two wells of a 384-well detection plate. A complete detection buffer was prepared by diluting D2 and Eu Cryptate antibodies 1:20 in kit-provided detection solution, 4 μL of complete detection buffer was then added to each well with lysate. Plates were incubated with gentle rocking for 24 hours at 4° C.
Following this incubation period, plates were centrifuged at 500×g for one minute and analyzed on a CLARIOstar plate reader. Data was imported into Microsoft Excel and the signal from the 665 nm channel was divided by the signal from the 620 nm channel. % pERK was calculated as: […]
Data was imported to the Prism software package (Graphpad) and EC50 values were calculated using the log (inhibitor) vs, response—variable slopc (Four parameters) model.

KP-2 cells (KRAS G12R) [2] = test: 3D Cell viability assay in KP-2 cells (Biological Example 6); format: cell-based; conditions: KP-2 (KRAS G12R) spheroids, 72 hours
Description: as §1, §2, §3, §4, §5, §6

| SMILES | pIC50 (H1573 cells (KRAS G12A); Homo sapiens, NCI-H1573) | pIC50 (HT1080 cells (NRAS); Homo sapiens, HT-1080) | pIC50 (KP-2 cells (KRAS G12R) [1]) | pIC50 (H1573 cells (KRAS G12A)) | pIC50 (HT1080 cells (NRAS)) | pIC50 (KP-2 cells (KRAS G12R) [2]) |
| --- | --- | --- | --- | --- | --- | --- |
| CCC(=O)N1C[C@@H](N(CC)c2nc(OC[C@@]34CCCN3C[C@H](F)C4)nc3c(F)c(-c4ccc(F)c5sc(N)c(C#N)c45)c(C(F)(F)F)cc23)C[C@H]1C [Compound 442] | 6.00 to 7.00 | < 6.00 | 6.00 to 7.00 | – | – | 6.00 to 7.00 |
| CCN(c1nc(OC[C@@]23CCCN2C[C@H](F)C3)nc2c(F)c(-c3ccc(F)c4sc(N)c(C#N)c34)c(C(F)(F)F)cc12)[C@@H]1CCN(C(C)=O)C1 [Compound 268] | ≥ 7.00 | < 6.00 | 6.00 to 7.00 | – | – | 6.00 to 7.00 |
| N#Cc1c(N)sc2c(F)ccc(-c3c(C(F)(F)F)cc4c(N5CC6CC(C5)O6)nc(OC[C@@]56CCCN5C[C@H](F)C6)nc4c3F)c12 (single isomer, unassigned) [Compound 275] | ≥ 7.00 | < 6.00 | 6.00 to 7.00 | – | – | ≥ 7.00 |
| C[C@@H]1[C@H](N(C)c2nc(OC[C@@]34CCCN3C[C@H](F)C4)nc3c(F)c(-c4ccc(F)c5sc(N)c(C#N)c45)c(C(F)(F)F)cc23)CC(=O)N1C [Compound 440] | < 6.00 | < 6.00 | 6.00 to 7.00 | – | – | ≥ 7.00 |
| CN(Cc1cccnc1N)c1nc(OC[C@@]23CCCN2C[C@H](F)C3)nc2c(F)c(-c3ccc(F)c4sc(N)c(C#N)c34)c(C(F)(F)F)cc12 [Compound 390] | – | < 6.00 | – | – | – | – |
| CCN(c1nc(OC[C@@]23CCCN2C[C@H](F)C3)nc2c(F)c(-c3ccc(F)c4sc(N)c(C#N)c34)c(Cl)cc12)[C@@H]1CCN(C(=O)C2CC2)[C@@H]1C [Compound 337] | ≥ 7.00 | < 6.00 | – | – | – | – |
| N#Cc1c(N)sc2c(F)ccc(-c3c(C(F)(F)F)cc4c(N5CC6CC5CO6)nc(OC[C@@]56CCCN5C[C@H](F)C6)nc4c3F)c12 (some centres unmarked) [Compound 147] | ≥ 7.00 | < 6.00 | – | – | – | – |
| CCC(=O)N1CC[C@@H](N(C)c2nc(OC[C@@]34CCCN3C[C@H](F)C4)nc3c(F)c(-c4ccc(F)c5sc(N)c(C#N)c45)c(C(F)(F)F)cc23)[C@H]1C [Compound 260] | ≥ 7.00 | < 6.00 | – | – | – | – |
| CCN(c1nc(OC[C@@]23CCCN2C[C@H](F)C3)nc2c(F)c(-c3ccc(F)c4sc(N)c(C#N)c34)c(Cl)cc12)[C@@H]1CCN(C(C)=O)[C@@H]1C [Compound 323] | ≥ 7.00 | < 6.00 | – | – | – | – |
| CCN(c1nc(OC[C@@]23CCCN2C[C@H](F)C3)nc2c(F)c(-c3ccc(F)c4sc(N)c(C#N)c34)c(C(F)(F)F)cc12)[C@H]1C[C@H](C)N(C(C)=O)C1 [Compound 463] | – | < 6.00 | – | – | – | – |
| CN(c1nc(OC[C@@]23CCCN2C[C@H](F)C3)nc2c(F)c(-c3ccc(F)c4sc(N)c(C#N)c34)c(C(F)(F)F)cc12)[C@H]1C[C@@H](O)C1 [Compound 19, 2-amino-7-fluoro-4-((S)-8-fluoro-2-(((2R,7aS)-2-fluorotetrahydro-1H-pyrrolizin-7a(5H)-yl)methoxy)-4-(((1s,3R)-3-hydroxycyclobutyl)(methyl)amino)-6-(trifluoromethyl)quinazolin-7-yl)benzo[b]thiophene-3-carbonitrile] | – | – | – | ≥ 7.00 | < 6.00 | – |
| N#Cc1cnn2c1CN(c1nc(OC[C@@]34CCCN3C[C@H](F)C4)nc3c(F)c(-c4ccc(F)c5sc(N)c(C#N)c45)c(C(F)(F)F)cc13)CC2 [Compound 392] | 6.00 to 7.00 | < 6.00 | 6.00 to 7.00 | – | – | 6.00 to 7.00 |
| N#Cc1c(N)sc2c(F)ccc(-c3c(C(F)(F)F)cc4c(N5CCCOCC5)nc(OC[C@@]56CCCN5C[C@H](F)C6)nc4c3F)c12 [Compound 232] | ≥ 7.00 | < 6.00 | – | – | – | – |

More lines, main results first:

| pIC50 (H1573 cells (KRAS G12A); Homo sapiens, NCI-H1573) | pIC50 (HT1080 cells (NRAS); Homo sapiens, HT-1080) | pIC50 (KP-2 cells (KRAS G12R) [1]) | pIC50 (H1573 cells (KRAS G12A)) | pIC50 (HT1080 cells (NRAS)) | SMILES | pIC50 (KP-2 cells (KRAS G12R) [2]) |
| --- | --- | --- | --- | --- | --- | --- |
| ≥ 7.00 | < 6.00 | ≥ 7.00 | – | – | CCN(c1nc(OC[C@@]23CCCN2C[C@H](F)C3)nc2c(F)c(-c3ccc(F)c4sc(N)c(C#N)c34)c(C(F)(F)F)cc12)[C@H]1CCN(C(=O)C(C)C)C1 [Compound 332] | ≥ 7.00 |
| ≥ 7.00 | < 6.00 | – | – | – | N#Cc1c(N)sc2c(F)ccc(-c3c(C(F)(F)F)cc4c(N5CCC[C@@H](O)C5)nc(OC[C@@]56CCCN5C[C@H](F)C6)nc4c3F)c12 [Compound 234] | – |
| ≥ 7.00 | < 6.00 | – | – | – | N#Cc1c(N)sc2c(F)ccc(-c3c(C(F)(F)F)cc4c(N5CCOCC5)nc(OC[C@@]56CCCN5C[C@H](F)C6)nc4c3F)c12 (single isomer, unassigned) [Compound 198] | – |
| ≥ 7.00 | < 6.00 | – | – | – | C[C@@H]1[C@H](N(C)c2nc(OC[C@@]34CCCN3C[C@H](F)C4)nc3c(F)c(-c4ccc(F)c5sc(N)c(C#N)c45)c(C(F)(F)F)cc23)CCN1C(=O)C1CC1 [Compound 258] | – |
| ≥ 7.00 | < 6.00 | ≥ 7.00 | – | – | CCN(c1nc(OC[C@@]23CCCN2C[C@H](F)C3)nc2c(F)c(-c3ccc(F)c4sc(N)c(C#N)c34)c(C(F)(F)F)cc12)[C@H]1CCN(C(C)=O)C1 [Compound 262] | 6.00 to 7.00 |
| ≥ 7.00 | < 6.00 | – | – | – | CC(=O)N1CC[C@@H](N(C)c2nc(OC[C@@]34CCCN3C[C@H](F)C4)nc3c(F)c(-c4ccc(F)c5sc(N)c(C#N)c45)c(Cl)cc23)[C@H]1C [Compound 398] | – |
| ≥ 7.00 | < 6.00 | ≥ 7.00 | – | – | CC(=O)N1CC[C@@H](N(C)c2nc(OC[C@@]34CCCN3C[C@H](F)C4)nc3c(F)c(-c4ccc(F)c5sc(N)c(C#N)c45)c(C(F)(F)F)cc23)[C@H]1C (single isomer, unassigned) [Compound 193] | – |
